Source: patent publication US20030180952A1, “Plant regeneration” (Sugar Research & Development Corporation, priority 2000, published 2003)

Legend:
[1] = system: leaf explants of sugarcane cultivar 91N406; assay: Direct shoot regeneration in leaf explants on MS medium with BA and NAA; type: cell-based; details: 91N406 explants; BA 4 μM
Description: Table 12: Direct shoot regeneration in leaf explants (1-2 mm thick) of sugarcane cultivar 90N876 cultured on MS medium supplemented with 6-benzyladenine (BA) and α-napthaleneacetic acid (NAA) for 8 weeks. Thirty replicates, each with 10 explants cultured in top down orientation, were maintained for each treatment. Table 13: Direct shoot regeneration in leaf explants (1-2 mm thick) of sugarcane cultivar 91N406 cultured on MS medium supplemented with 6-benzyladenie (BA) and α-napthaleneacetic acid (NAA) for 8 weeks. Five replicates, each with 10 explants cultured in top down orientation were maintained for each treatment.
(§1) Top portions (about 30 cm) of shoots were cut and all leaves except the innermost 3-4 whorls were carefully removed under aseptic conditions. TS explants measuring about 1.0-2.0 mm or 5.0-6.0 mm in thickness were prepared by serial transverse sectioning of the lowermost 3-4 cm portion (just above the apical meristem) of the leaf spindle using a sharp surgical blade under sterile conditions.
Murashige & Skoog (MS) nutrient formulation supplemented with 30 g/L sucrose and 7.5 g/L Difco agar were used as the basal culture medium. […]

[2] = system: inflorescence explants of sugarcane Q152; assay: Regeneration from inflorescence explants; type: cell-based; details: Table 18 (b) ˜8 mm pieces of main floral axis placed laterally
Experimental: Table 18: Comparison of regeneration efficiency for different sugarcane explants. Explants were (a) 2-3 mm sections of main floral axis of inflorescence; (b) ˜8 mm sections of main floral axis placed laterally on the culture medium; (c) immature floral tissues dissociated from floral axis; and (d) whole 2-3 mm sections of inflorescence oriented “top down”. B4N10=4 μM BA+10 μM NAA; B4N40=4 μM BA+40 μM NAA; B4N60=4 μM BA+60 μM NAA; 2,4D14=14 μM 2,4,D. “Top down” orientation is as previously described. Shoot frequency legend: *1-2 shoots per explant; **3-10 shoots per explant; ***greater than […] shoots per explant.
Young bolting inflorescence “stalk” tissue enveloped in developing leaves (floral and leaf components) was harvested from above the apical meristem of Q152 or Q165 sugarcane plants. Transverse sections were made to produce 2-3 mm thin sections of the tissue.
(§2) Murashige & Skoog (MS) nutrient formulation supplemented with 30 g/L sucrose and 7.5 g/L Difco agar were used as the basal culture medium. Basal medium was enriched with different concentrations and combinations of (i) a cytokinin: 6-benzylaminopourine (BA) or kinetin (KIN); (ii) an auxin: α-napthaleneacetic acid (NAA); and (iii) anti-oxidants: citric acid (CA), ascorbic acid (AA), or dithiothreitol (DTT); depending on the experimental objective. […]

[3] = system: leaf whorl explants of sugarcane cultivar Q165; assay: Somatic embryogenesis / shoot regeneration in leaf whorl explants; type: cell-based; details: sugarcane leaf section cultures
Experimental: Table 19: Morphogenic response of leaf whorl explants (1.0-2.0 mm thick) of sugarcane cultivar Q165 after 8 weeks of culture on MS medium supplemented with chlorophenoxyacetic acid (CPA). Ten replicates, each with 10 explants placed in top down orientation, were maintained for each treatment. Explants were cultured under dark condition for the initial 5-6 weeks and then transferred to light (16 hr/day) for further shoot/planlet development. C=Mostly non-embroygenic callus was produced.
Table 20: Morphogenic response of leaf whorl explants (1.0-2.0 mm thick) of sugarcane cultivar Q165 after 8 weeks of culture on MS mediun supplemented with chlorophenoxyacefic acid (CPA). Ten replicates, each with 10 explants placed in top down orientation, were maintained for each treatment. All cultures received 16 hr light every day.
Table 21: Shoot regeneration in 1.0-2.0 mm thick leaf whorl explants of sugarcane cultivar Q165 after 8 weeks of culture on MS medium containing 6-benzyladenine (BA), α-naphthaleneacetic acid (NAA) and cholorophenoxyacetic acid (CPA). Ten replicates, each with 10 explants placed in top down orientation, were maintained for each treatment. All cultures received 16 hr light every day. […]

[4] = system: leaf base sections of sorghum variety New Nugget; assay: Somatic embryogenesis and shoot production in leaf base sections; type: cell-based, Sorghum bicolor L.; details: for regeneration with other hormone combinations: sorghum
Description: Table 26: Effect of different levels of cholorophenoxyacetic acid (CPA) on somatic embryogenesis and shoot production in 1.0-2.0 mm thick leaf base sections of sorghum (Sorghum bicolor L.) variety New Nugget after 8 weeks of culture. Five to six replicates, each with 10 explants placed in “top down” orientation, were maintained for each treatment. All cultures received 16 hr light every day.
Table 27: Effect of different levels of cholorophenoxyacetic acid (CPA) and 6-benzyladenine (BA) on somatic embryogenesis and shoot production in 1.0-2.0 mm thick leaf base sections of sorghum (Sorghum bicolor l L.) variety New Nugget after 8 weeks of culture. Five to six replicates, each with 10 explants placed in “top down” orientation, were maintained for each treatment. All cultures received 16 hr light every day.
Young developing leaf sheaths (the innermost 3-4 whorls at the shoot tip) were used as the explant. Explants were preferably 1.0-2.0 mm thick transverse sections taken from the whorls. MS nutrient medium containing 3% sucrose and 7.5 g/L Davis J3 agar was used as the basal medium for all experiments. MS-based medium with several plant growth regulators was tested as a micropropagation medium.

[5] = system: leaf explants of sugarcane cultivar Q165; assay: Shoot regeneration in leaf explants on MS medium with cytokinin and auxin; type: cell-based; details: at any given concentration of NAA; Tables 7, 8 and 10
Experimental: as §1
as §2, with “objective. The pH of the medium was adjusted to 5.7 before autoclaving for 20 minutes at 120° C.” for “objective.”
Also, the concentrations of BA and NAA were varied in order to determine their influence upon shoot generation. […] The percentage of explants producing shoots were scored, as were the number of shoots produced per explant. […]

In the case of `O=C(O)Cc1cccc2ccccc12` [NAA, α-napthaleneacetic acid], the “optimal concentration of NAA for shoot regeneration” value [1] is reported as 40 µM.

With `O=C(O)COc1ccc(Cl)cc1Cl` [2,4-D14] the “Number of explants showing reg'n” value [2] was 0 and the “Percentage of explants regenerating” value [2] was 0%.

`Nc1cc(Cl)cc(C(=O)O)c1Cl` [AD, 3 amino-2,5-dichlorobenzoic acid] was tested, and the “morphological abnormalities in the regenerated plants” value [3] was “developed albinos occasionally”.

For `Nc1c(Cl)c(Cl)nc(C(=O)O)c1Cl` [picloram], the “regeneration with other hormone combinations” value [4] was “unsucessful”.

In the case of `c1coc(CNc2ncnc3[nH]cnc23)c1` [KIN, kinetin], the “effect on shoot regeneration” value ([4]; added after the initial embryo formation) is reported as “enhanced” and the “optimal concentration of cytokinin for shoot regeneration” value [5] is reported as 4 µM.

`O=C(Nc1ccccc1)Nc1cnns1` [thidiazuron] was tested, and the “regeneration with other hormone combinations” value [4] was “unsucessful”.

`COc1c(Cl)ccc(Cl)c1C(=O)O` [dicamba] was tested, and the “regeneration with other hormone combinations” value [4] was “unsucessful” and the callus growth ([4]; sorghum cultures containing dicamba) was “some callus growth was seen”.
